Where two headings read alike, the source gives them in different places. Values belong to the compound of their own block, whether it stands above or below them.
Key:
KRAS WT = KRAS WT (Homo sapiens (Human), UniProt P01116); assay: SOS-catalyzed nucleotide exchange assay (GNE), KRAS WT; assay type: biochemical; details: TR-FRET, 60 min preincubation
Text: (§1) Procedure for SOS-Catalyzed Nucleotide Exchange Assay for KRAS-WT, G12C/D/V/A/R/S, G13D, Q61H, HRAS-WT, and NRAS-WT
(§2) Recombinant KRAS-G12C protein used in this assay has an additional triple mutation (C51S/C80L/C118S). Whereas KRAS-WT, G12D/V/A/S/R, G13D, Q61H, HRAS and NRAS are in context of their WT protein sequence background. Specifically, the SOS-catalyzed nucleotide exchange assay utilizes a preformed TR-FRET complex containing a specific biotinylated RAS protein (KRAS-WT, G12C/V/D/A/S/R, G13D, Q61H, HRAS-WT, NRAS-WT; described above) with Bodipy-GDP, and Terbium-streptavidin. Compounds are preincubated with this complex for 60 minutes. Subsequently, recombinant human SOS protein and unlabeled GTP are added to initiate the exchange reaction. Small molecule inhibitors stabilize the Bodipy-GDP complex whereas the untreated protein rapidly exchanges Bodipy-GDP for unlabeled GTP resulting in reduced TR-FRET signal.
(§3) To assemble the preformed TR-FRET complexes, each biotinylated RAS protein is diluted to 2 μM in an EDTA Buffer (20 mM HEPES pH 7.5, 50 mM sodium chloride, 10 mM EDTA, and 0.01% Tween) and incubated at room temperature for one hour. This mixture is then further diluted to 90 nM in an Assay Buffer (20 mM HEPES pH 7.5, 150 mM sodium chloride, 10 mM magnesium chloride, and 0.005% Tween) containing 15 nM of Terbium-Streptavidin (Invitrogen, catalog #PV3577) and 900 nM of Bodipy-GDP (Invitrogen, catalog #G22360) and incubated at room temperature for six hours. It should be noted that this preformed TR-FRET complex for each of the RAS protein were made ahead of time, aliquoted and stored at −80° C. until the day of the experiment.
(§4) Each test compound (10 mM stock in DMSO) is diluted in DMSO to make a final-10-point, 3-fold dilution and is acoustically dispensed into a 384-well assay plate (Corning, catalog #3820) using an Echo 550 (Labcyte). Each well of the assay plate receives 3 μL of a specific 3×RAS preformed TR-FRET complex and 3 μL of Assay Buffer and is incubated at room temperature for 60 minutes (preincubation time). Each well then receives 3 μL of 3× recombinant human SOS protein and GTP (Sigma, G8877) in Assay Buffer and is incubated at room temperature for 30 minutes (G13D), 60 minutes (KRAS WT/G12C/D, H/NRAS) or 90 minutes for G12A/R/S/V and Q61H. The final reaction in each well of 9 μL consists of 3 mM GTP, specific Ras and SOS proteins in the following concentrations: KRAS-G12C/SOS=3 nM/40 nM, KRAS-WT and G12D/SOS=1 nM/40 nM, KRAS-G12V/SOS=1.25 nM/160 nM, KRAS-G12A/S/SOS=1 nM/160 nM, KRAS-G12R/SOS=1 nM/320 nM, KRAS-Q61H/SOS=1 nM/320 nM, KRAS-G13D/SOS=1.25 nM/[…], HRAS-WT and NRAS-WT=1.25 nM/40 nM.
(§5) The time-resolved fluorescence resonance energy transfer (TR-FRET) signal is measured on an Envision (PerkinElmer) plate reader: Excitation filter=340 nm; emission1=495 nm; emission2=520 nm; dichroic mirror=D400/D505; delay time=[…]. The signal of each well is determined as the ratio of the emission at 520 nm to that at 495 nm. Percent effect of each well is determined after normalization to control wells containing DMSO (no effect) or a saturating concentration of inhibitor (max effect). The apparent effect as a function of compound concentration is fit to a four-parameter logistic equation.

KRAS Q61H = KRAS Q61H (Homo sapiens (Human), UniProt P01116, Q61H); assay: SOS-catalyzed nucleotide exchange assay (GNE), KRAS Q61H; assay type: biochemical; details: TR-FRET, 60 min preincubation
Text: as §1, §2, §3, §4, §5

[1] = system: SW620 cells (homozygous KRAS-G12V); assay: Cellular phospho-ERK assay, SW620 cells; assay type: cell-based; details: p-ERK vs. total ERK, read-out: SW620 pERK IC50
Protocol: Procedure for Cellular Phospho-ERK Assay in KRAS Wild Type and Mutant (G12D, G12V) Cell Lines
MKN-1 cells (JCRB JCRB0252) containing amplified wild-type KRAS, were cultured in growth medium that contains RPMI 1640-GlutaMAX™-I (ThermoFisher Scientific 61870) containing 10% heat inactivated fetal bovine serum (ThermoFisher Scientific 10091148), 1 mM sodium pyruvate and 10 mM HEPES. AsPC-1 cells (ATCC® CRL-1682™), containing homozygous KRAS-G12D activating mutation, were cultured in T150 flask in growth medium (RPMI medium 1640-GlutaMAX™-I (ThermoFisher Scientific 61870) containing 10% fetal bovine serum (ThermoFisher Scientific 10091148)). SW620 cells (ATCC® CRL-227™) containing homozygous KRAS-G12V activating mutation, were cultured in growth medium that contains RPMI 1640-GlutaMAX™-I (ThermoFisher Scientific 61870) containing 10% heat inactivated fetal bovine serum (ThermoFisher Scientific 10091148).
Cells for the assay were harvested in growth medium after TrypLE (ThermoFisher scientific 12604021) digestion and were seeded in a 384-well collagen coated cell culture plate (Corning 356702) at a density of 10,000-15,000 cells/[…]/well, and incubated at 37° C., 5% CO2 overnight. The compound (with 10 mM stock concentration) dose-response titrations were prepared [30 μM final ERK detection assay concentration and 1:3 dilutions, 10-point dose response] and appropriate amounts (270 nL) of test compounds were dispensed in a 384-well intermediate plate using an Echo 550 liquid handler. 30 μL/well of RPMI medium 1640-GlutaMAX™-I was added to the intermediate plate and the contents of the intermediate plate (10 μL/well) were then transferred to the 384-well collagen coated cell culture plate, which was incubated at 37° C., 5% CO2 for 2 h. After removal of medium from the collagen coated cell culture plate, cells were lysed in lysis buffer from Alpha SureFire® Ultra™ Multiplex p-ERK and total ERK assay kit (PerkinElmer MPSU-PTERK) containing Halt™ Protease and Phosphatase inhibitor cocktail (ThermoFisher Scientific 78446) at room temperature with constant shaking at 300 rpm for 30 minutes. The cell lysates were then transferred to an OptiPlate-384 plate (PerkinElmer 6005620), and the phosphorylation of ERK (p-ERK) and total ERK levels were detected by Alpha SureFire® Ultra™ Multiplex p-EEK kit and total ERK assay kit (PerkinElmer MPSU-PTERK) following the manufacturer's protocol. Assay plates were read on a EnVision Multimode Plate Reader (PerkinElmer), and the ratio of p-ERK vs. total ERK in each well was used as the final readout. Dose response curves were analyzed using a 4-parameter logistic model to calculate IC50 values using Spotfire software.

KRAS G12D = KRAS G12D (Homo sapiens (Human), UniProt P01116, G12D); assay: SOS-catalyzed nucleotide exchange assay (GNE), KRAS G12D; assay type: biochemical; details: TR-FRET, 60 min preincubation
Text: as §1, §2, §3, §4, §5

Chain of KRAS WT (P01116 other isoform, or with tags, fused parts or gaps): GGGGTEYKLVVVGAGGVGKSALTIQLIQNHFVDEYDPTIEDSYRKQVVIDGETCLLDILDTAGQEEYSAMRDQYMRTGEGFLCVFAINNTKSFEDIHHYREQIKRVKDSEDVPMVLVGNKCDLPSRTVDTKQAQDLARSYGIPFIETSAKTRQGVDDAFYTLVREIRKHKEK
Chain of KRAS G12D (P01116 other isoform, or with tags, fused parts or gaps G12D (already in the parent)): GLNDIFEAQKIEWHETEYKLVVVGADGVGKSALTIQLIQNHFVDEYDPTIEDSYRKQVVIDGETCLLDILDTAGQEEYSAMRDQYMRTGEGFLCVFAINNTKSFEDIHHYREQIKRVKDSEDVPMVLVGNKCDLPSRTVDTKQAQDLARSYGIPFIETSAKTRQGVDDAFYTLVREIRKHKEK
Chain of KRAS Q61H (P01116 other isoform, or with tags, fused parts or gaps Q61H (already in the parent)): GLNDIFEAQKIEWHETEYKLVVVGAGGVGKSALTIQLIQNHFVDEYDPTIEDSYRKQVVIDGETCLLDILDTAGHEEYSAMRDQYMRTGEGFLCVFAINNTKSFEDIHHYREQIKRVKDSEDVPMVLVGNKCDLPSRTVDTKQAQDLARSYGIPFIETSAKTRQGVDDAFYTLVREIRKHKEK

Structure (SMILES): F/C=C1/CN2CCC[C@@]2(COc2nc3c4c(nc(-c5c(C6CC6)c(Cl)cc6[nH]ncc56)c(F)c4n2)OC[C@@H]2COCCCN32)C1 [Ex-1, (8aS)-5-(6-chloro-5-cyclopropyl-1H-indazol-4-yl)-4-fluoro-2-(((S,Z)-2-(fluoromethylene)tetrahydro-1H-pyrrolizin-7a(5H)-yl)methoxy)-8a,9,12,13-tetrahydro-8H,11H-7,10-dioxa-1,3,6,13a-tetraazanaphtho[1,8-ab]heptalene]
IC50 (KRAS WT): 0.87 nM
IC50 (KRAS Q61H): 1.4 nM
IC50 ([1]; 2 h): 2.6 nM
IC50 (KRAS G12D): 0.67 nM

Structure (SMILES): CCc1c(F)ccc2cc3[nH]ncc3c(-c3nc4c5c(nc(OC[C@@]67CCCN6C[C@H](F)C7)nc5c3F)N3CCCOC[C@H]3CO4)c12 [Ex-2, (8aS)-5-(5-ethyl-6-fluoro-1H-benzo[f]indazol-4-yl)-4-fluoro-2-(((2R,7aS)-2-fluorotetrahydro-1H-pyrrolizin-7a(5H)-yl)methoxy)-8a,9,12,13-tetrahydro-8H,11H-7,10-dioxa-1,3,6,13a-tetraazanaphtho[1,8-ab]heptalene]
IC50 (KRAS WT): 1.1 nM
IC50 (KRAS Q61H): 1.2 nM
IC50 ([1]; 2 h): 2.4 nM
IC50 (KRAS G12D): 0.65 nM

Structure (SMILES): Fc1c(-c2c(C3CC3)c(Cl)cc3[nH]ncc23)nc2c3c(nc(OC[C@@]45CCCN4C[C@H](F)C5)nc13)N1CCCOC[C@H]1CO2 [Ex-3, (8aS)-5-(6-chloro-5-cyclopropyl-1H-indazol-4-yl)-4-fluoro-2-(((2R,7aS)-2-fluorotetrahydro-1H-pyrrolizin-7a(5H)-yl)methoxy)-8a,9,12,13-tetrahydro-8H,11H-7,10-dioxa-1,3,6,13a-tetraazanaphtho[1,8-ab]heptalene]
IC50 (KRAS WT): 2.5 nM
IC50 ([1]; Homo sapiens, SW-620, 2 h): 3.9 nM
IC50 (KRAS G12D): 1.3 nM

Structure (SMILES): CCc1c(F)ccc2cc3[nH]ncc3c(-c3nc4c5c(nc(OC[C@@]67CCCN6C/C(=C\F)C7)nc5c3F)N3CCCOC[C@H]3CO4)c12 [Ex-4, (8aS)-5-(5-ethyl-6-fluoro-1H-benzo[f]indazol-4-yl)-4-fluoro-2-(((S,Z)-2-(fluoromethylene)tetrahydro-1H-pyrrolizin-7a(5H)-yl)methoxy)-8a,9,12,13-tetrahydro-8H,11H-7,10-dioxa-1,3,6,13a-tetraazanaphtho[1,8-ab]heptalene]
IC50 (KRAS WT): < 0.69 nM
IC50 (KRAS Q61H): 1 nM
IC50 ([1]; Homo sapiens, SW-620, 2 h): < 1.5 nM
IC50 (KRAS G12D): < 0.69 nM

Structure (SMILES): CCc1c(F)ccc2cc3[nH]nc(C)c3c(-c3nc4c5c(nc(OC[C@@]67CCCN6C/C(=C\F)C7)nc5c3F)N3CCCOC[C@H]3CO4)c12 [Ex-7, (8aS)-5-(5-ethyl-6-fluoro-3-methyl-1H-benzo[f]indazol-4-yl)-4-fluoro-2-(((S,Z)-2-(fluoromethylene)tetrahydro-1H-pyrrolizin-7a(5H)-yl)methoxy)-8a,9,12,13-tetrahydro-8H,11H-7,10-dioxa-1,3,6,13a-tetraazanaphtho[1,8-ab]heptalene]
IC50 (KRAS WT): 1.4 nM
IC50 (KRAS Q61H): 2.8 nM
IC50 ([1]; 2 h): 2.5 nM
IC50 (KRAS G12D): 1.4 nM

Further lines, results first:

IC50 (KRAS WT): < 0.69 nM
IC50 (KRAS Q61H): 0.97 nM
IC50 ([1]; Homo sapiens, SW-620, 2 h): 1.3 nM
IC50 (KRAS G12D): < 0.69 nM
Structure (SMILES): F/C=C1\CN2CCC[C@@]2(COc2nc3c4c(nc(-c5c(C6(F)CC6)c(Cl)cc6[nH]ncc56)c(F)c4n2)OC[C@@H]2COCCCN32)C1 [Ex-5, (8aS)-5-(6-chloro-5-(1-fluorocyclopropyl)-1H-indazol-4-yl)-4-fluoro-2-(((S,Z)-2-(fluoromethylene)tetrahydro-1H-pyrrolizin-7a(5H)-yl)methoxy)-8a,9,12,13-tetrahydro-8H,11H-7,10-dioxa-1,3,6,13a-tetraazanaphtho[1,8-ab]heptalene]

IC50 (KRAS WT): 1.6 nM
IC50 (KRAS Q61H): 1.8 nM
IC50 ([1]; Homo sapiens, SW-620, 2 h): 3.4 nM
IC50 (KRAS G12D): 1.3 nM
Structure (SMILES): CCc1c(F)ccc2cc3[nH]nc(C)c3c(-c3nc4c5c(nc(OC[C@@]67CCCN6C[C@H](F)C7)nc5c3F)N3CCCOC[C@H]3CO4)c12 [Ex-6, (8aS)-5-(5-ethyl-6-fluoro-3-methyl-1H-benzo[f]indazol-4-yl)-4-fluoro-2-(((2R,7aS)-2-fluorotetrahydro-1H-pyrrolizin-7a(5H)-yl)methoxy)-8a,9,12,13-tetrahydro-8H,11H-7,10-dioxa-1,3,6,13a-tetraazanaphtho[1,8-ab]heptalene]
